{
  "source": "patent US20240165089A1",
  "about": "“METHOD FOR TREATING MYOPIA WITH VINPOCETINE” (EYE HOSPITAL, WENZHOU MEDICAL UNIVERSITY, priority 2021, published 2024)",
  "key": {"[1]": {"system": "form deprivation myopia model of guinea pigs", "test": "FDM guinea pig model, subconjunctival injection of AVA", "assay_type": "in vivo", "conditions": "1 week", "protocol": "The modeling method for myopic individuals was the same as other embodiments of the present invention. […] No other active substances or excipients were added."}, "[2]": {"system": "form deprivation myopia model of guinea pigs", "test": "FDM guinea pig model, subconjunctival injection, salmeterol/tiotropium/vinpocetine", "conditions": "0.1% atropine, 2 weeks", "excerpt": "The form deprivation myopia model of guinea pigs described in the present invention was used to evaluate the efficacy. […] On the first day of the experiment, guinea pigs were subjected to form deprivation at 8 a.m. using a mask method, with the right eye covered (experimental eye) and the left eye uncovered (contralateral eye). Starting from the day of modeling, solvents or drugs for the corresponding groups were given to the experimental eyes at 9-10 a.m. every day by eyeball subconjunctival injection at an injection volume of 100 μL, once a day for 2 weeks. The refraction and axial parameters of the animals were detected before the start of the efficacy experiment and at the end of the experiment. All data collection and processing methods were the same as in other embodiments of the present invention. The statistical basis was the difference between the experimental eye and the contralateral eye of the same subject individual."}, "[3]": {"system": "form deprivation myopia model of guinea pigs", "test": "FDM guinea pig model, eye drops (non-invasive administration)", "assay_type": "in vivo", "protocol": "The purpose of this experiment was to evaluate the effect of vinpocetine on myopia through non-invasive administration. All tested drugs were formulated into eye drops. […] No other active substances or excipients were added to the above eye drops."}, "[4]": {"conditions": "0.1% atropine eye drops, 2 weeks"}, "[5]": {"conditions": "0.1% atropine eye drops, 2 weeks (rounded and actual value)"}},
  "note": "Values joined by “and” are separate entries in the source; they are usually repeats but may differ in a detail not shown here. Identical values can stand only once.",
  "data": [
    {"smiles": "CC[C@@]12C=C(C(=O)O)n3c4c(c5ccccc53)CCN(CCC1)[C@H]42", "note": "[AVA, apovincaminic acid]", "values": [
      {"measurement": "axial length difference between the eyes", "setting": "[1]; AVA 1 μM", "value": "0.07±0.03", "unit": "mm"},
      {"measurement": "inhibition rate for the axial length", "setting": "[1]; AVA 1 μM", "value": 36.4, "unit": "%"},
      {"measurement": "inhibition rate for the vitreous chamber depth", "setting": "[1]; AVA 1 μM", "value": 34.7, "unit": "%"},
      {"measurement": "ocular abnormalities", "setting": "[1]; AVA 1 μM", "value": "no ocular abnormalities were observed"},
      {"measurement": "refraction inhibition rate", "setting": "[1]; AVA 1 μM", "value": 39.6, "unit": "%"},
      {"measurement": "vitreous chamber depth difference between the eyes", "setting": "[1]; AVA 1 μM", "value": "0.06±0.02", "unit": "mm"},
      {"measurement": "refraction difference between the eyes", "setting": "[1]; FDM, AVA 1 μM subconjunctival 100 μL once a day", "value": "−2.65±1.18", "unit": "D"}
    ]},
    {"smiles": "CN1[C@@H]2CC[C@H]1C[C@@H](OC(=O)C(CO)c1ccccc1)C2", "note": "(stereo partly shown) [atropine]", "values": [
      {"measurement": "corneal curvature (RCC), anterior chamber depth (ACD) and lens thickness (LT)", "setting": "[2]", "value": "not affected by the drug"},
      {"measurement": "pupil dilation", "setting": "[2]; subconjunctival", "value": "pupil dilation occurred"},
      {"measurement": "refraction change towards negative, axial length elongation and vitreous chamber depth increase vs negative control", "setting": "[2]; FDM, subconjunctival", "value": "significantly inhibited"},
      {"measurement": "efficacy as positive control", "setting": "[1]; 0.1% atropine subconjunctival", "value": "showed its due efficacy"},
      {"measurement": "pupil dilation", "setting": "[1]; 0.1% atropine subconjunctival", "value": "Pupil dilation occurred"},
      {"measurement": "therapeutic effect on the guinea pig myopia model", "setting": "[3]; 0.01% atropine eye drops, same administration conditions", "value": "did not have any therapeutic effect"},
      {"measurement": "inhibition rate for the vitreous chamber depth", "setting": "[3]; [4]", "value": 21.8, "unit": "%"},
      {"measurement": "refraction inhibition rate", "setting": "[3]; [4]", "value": 40.0, "unit": "%"},
      {"measurement": "axial length difference between the eyes", "setting": "[3]; [5]", "value": "0.11±0.05 mm and 0.1093±0.0530 mm"},
      {"measurement": "vitreous chamber depth difference between the eyes", "setting": "[3]; [5]", "value": "0.11±0.05 mm and 0.1107±0.0502 mm"},
      {"measurement": "pupil dilation", "setting": "[3]; 0.1% atropine eye drops, during administration", "value": "Adverse reactions of pupil dilation occurred"},
      {"measurement": "refraction difference between the eyes (model-induced myopia)", "setting": "[3]; FDM, 0.1% atropine eye drops 25 μL twice a day, 2 weeks", "value": "−3.93±1.75", "unit": "D"}
    ]}
  ]
}
